Laboratory results published in ChEMBL document CHEMBL3507680, “University of Dundee, Gates Library screen for HepG2 cell viability”.

Assay: Human HepG2 cell viability assay in 384 well format
Assay type: toxicity, cell-based
Design: dose 125 nL, time 70.5 hour; concentration not given beside the values
Settings: HepG2 cells, read-out: Inhibition

| Compound | cytotoxicity at 70.5 h |
| --- | --- |
| O=C(c1ccc(N2CCCC2)nn1)N1CCc2ccccc21 | 0.119% |
| O=C(Nc1ccc2c(c1)OCO2)c1ccc(N2CCCC2)nn1 | 20.4% |
| CCCc1cncnc1N1CCC(NCCc2nc(O)cc(O)n2)CC1 | -7.02% |
| COc1cnc(N2CC(N3CCOCC3)C2)nc1-c1ccnn1C | 6.03% |
| CSCc1noc(CNC(=O)C2CCN(C(=O)C3CCCC3)CC2)n1 | -10.6% |
| CC(C)N1CCCC(CN(C)c2ccc(Cn3ccnc3)cn2)C1 (configuration not stated) | -12.6% |
| CCOc1ccc(C(=O)CCC(=O)NCc2cncn2CC)cc1C | 40.5% |
| CCc1n[nH]c(C(=O)N2CCCC3(CN(C)C(=O)O3)C2)c1C (configuration not stated) | -13.7% |
| Cc1ccc(F)cc1-n1c(CCCN2CCOCC2)n[nH]c1=O | -7.44% |
| O=C(CCC(F)(F)F)N1CCN(Cc2ccncc2)[C@@H]2CS(=O)(=O)C[C@@H]21 | 24% |
| O=C(NCCc1cnccn1)c1ccc(S(=O)(=O)NC2CCC2)cc1 | 18.7% |
| COc1cccc(C(=O)N2CCC3(CCC(=O)N(C(C)C)C3)CC2)c1C | -4.66% |
| CSCCCN1C[C@H]2CC[C@@H]1CN(Cc1[nH]cnc1C)C2 | -2.71% |
| COc1cccc2c(=O)n(CCN3CCNCC3)cnc12 | -0.783% |
| CCN1CCN(S(=O)(=O)N2CCCCCC2)[C@H]2CS(=O)(=O)C[C@H]21 | 30% |
| CN1CC2(CCN(C(=O)CCCOCc3ccccc3)C2)OC1=O (configuration not stated) | -11.2% |
| COc1cc(C)ccc1OCc1nc(C(=O)N2CCC(C)CC2)co1 | -2.55% |
| CCOc1ccc(-c2cc(CCN)ccc2OC)cc1 | -1.62% |
| O=C(CCc1cc(O)no1)N1CCCC(OCc2cccnc2)C1 (configuration not stated) | -10.1% |
| OC1CCN(C2CCN(Cc3cccc(Cn4cccn4)c3)CC2)CC1 | 5.45% |
| O=C(C1CC1)N1CCc2c(ncnc2N2CCN3CCCC3C2)C1 (configuration not stated) | 26% |

| Compound | cytotoxicity at 70.5 h |
| --- | --- |
| CCc1ncc(C(=O)N2CCCN(C3CCCC3)CC2)cn1 | -14.6% |
| CN(C)CCNC(=O)c1cc2n(n1)CCN(C(=O)CC(C)(C)C)C2 | -9.74% |
| c1ccc(C2CCCN(Cc3cc4n(n3)CCNC4)CC2)cc1 (configuration not stated) | -6.51% |
| CO[C@H]1CN(C(C)C)C[C@@H]1NC(=O)c1cc(COc2ccccc2)[nH]n1 | -3.71% |
| O=C(c1cnc2ccccc2c1)N1CCCC(O)(CN2CCCC2)C1 (configuration not stated) | -0.693% |
| Cc1cc2c(cc1C(=O)N1CCC3(CC(=O)NC3=O)C1)OCCO2 (configuration not stated) | 10.6% |
| CC(=O)N1CCN(C(=O)Nc2cnc3c(cnn3C(C)C)c2)CC1 | 14.8% |
| COc1ccccc1C(O)CNC(=O)NCc1csc(C)n1 (configuration not stated) | 1.19% |
| COc1ccc(C(CNC(=O)NCc2csc(C)n2)N(C)C)cc1 (configuration not stated) | 21% |
| CCS(=O)(=O)c1ccccc1N1CCC(NC(=O)C2CC2)CC1 | 1.87% |
| Cc1ccc(-c2cc(CNC(=O)N3CCCN(C)CC3)on2)cc1 | 2.1% |
| CCc1nc(C2CCCN(C(=O)c3ccccc3O)C2)no1 (configuration not stated) | 3.74% |
| CC(C)n1ncc2cc(NC(=O)N3CCC(C(N)=O)C3)cnc21 (configuration not stated) | 16.7% |
| Cc1nnc(CN(C)C2CCN(CCc3ccccn3)CC2)o1 | -4.31% |
| CCN1CCN(C(=O)c2ccc(=O)n(C)c2)c2ccccc21 | -3.86% |
| O=C(NCC(=O)N1CCCC1)c1nn(-c2ccccc2F)cc1O | 3.63% |
| O=C(c1nn(-c2ccccc2F)cc1O)N1CCCCC1 | -7.27% |
| COc1ccccc1C(=O)NS(=O)(=O)c1cccc(C#N)c1 | -7.53% |
| CC(C)Oc1ncccc1CNC(=O)NC1CCOc2ccccc21 (configuration not stated) | 8.32% |
| COc1cc(C(=O)NS(=O)(=O)c2ccc(C#N)cc2)ccc1C | -5.03% |
| COc1cc(C(=O)NS(=O)(=O)c2cccc(C#N)c2)cc(OC)c1C | -9.63% |

| Compound | cytotoxicity at 70.5 h |
| --- | --- |
| COc1ccc(C(=O)NS(=O)(=O)c2cccc(C#N)c2)cc1 | 13.5% |
| Cc1cnn(CC2CN(Cc3nnc(C4CC4)n3C)CCO2)c1 (configuration not stated) | -4.23% |
| NC(=O)NCC1CCCCN1Cc1nc(-c2ccco2)no1 (configuration not stated) | -9.61% |
| O=C1NCCN1C1CCCN(Cc2coc(-c3cccs3)n2)C1 (configuration not stated) | -6.11% |
| O=C(N1CCCC(n2cncn2)C1)C1(c2cccc(F)c2)CCC1 (configuration not stated) | -8.35% |
| Cc1ccc(-n2nnc(C(=O)NCC(F)(F)F)c2C2CC2)cc1 | -5.02% |
| CC(=O)N(Cc1noc(C2CC2)n1)C1CCN(Cc2ccccn2)C1 (configuration not stated) | -9.44% |
| Cc1ccc(-n2nnc(C(=O)NCC3(CO)CC3)c2C2CC2)cc1 | -4.67% |
| O=C(c1cc2c(s1)CCC2)N1CCCC1Cn1cccn1 (configuration not stated) | -1.69% |
| O=C(N1CCCC(n2cncn2)C1)C1(c2cccc(F)c2)CCCC1 (configuration not stated) | 16.5% |
| CCc1ncncc1C(=O)N1CCN(Cc2cscn2)CC1 | -3.97% |
| O=C(c1cc2c(s1)CCOC2)N1CCCCC1Cn1cccn1 (configuration not stated) | -7.81% |
| CC(=O)N(Cc1noc(C2CC2)n1)C1CCN(Cc2ccccc2)C1 (configuration not stated) | -5.69% |
| c1sc(C2CCCCC2)nc1CN1CCn2c(nnc2C2CC2)C1 | -3.37% |
| O=C(CN1CC(n2cccn2)C1)NCCCN1CCCC1=O | 22.2% |
| CC(C)c1ncc2c(n1)CN(Cc1nc(-c3cccnc3)no1)CC2 | 13.2% |
| Cc1c(C(=O)N2CCCC2c2cnn(C)c2)cnn1-c1ccccc1 (configuration not stated) | 17.9% |
| O=C(NCCNc1ncccn1)C1CCCC1 | 15.4% |
| O=C(c1cc(C2CC2)[nH]n1)N1CCN(Cc2ccccc2)CC1 | -4.29% |
| O=C(c1cc(C2CC2)[nH]n1)N1CCN(Cc2ccc(Cl)cc2)CC1 | 12.5% |
| Cc1nnc2n1CCN(Cc1csc(COc3ccccc3)n1)C2 | -7.26% |

| Compound | cytotoxicity at 70.5 h |
| --- | --- |
| NC(=O)C1CN(C(=O)Nc2ccccc2SC2CCCC2)CCO1 (configuration not stated) | -3.34% |
| COCCOc1cccc(C(=O)N2CCCC(n3ccnc3)C2)c1 (configuration not stated) | -4.62% |
| N#CCCNC(=O)CN1CC(n2cccn2)C1 | -1.56% |
| Cc1ccc(NC2CCN(C(=O)CCc3ccncc3)CC2)nn1 | -7.44% |
| c1ccc2oc(CCCN3CCCCC3Cn3cncn3)nc2c1 (configuration not stated) | -7.94% |
| O=C(CN1CC(n2cccn2)C1)NCCC1=CCCCC1 | -6.23% |
| CC(C)c1ncc2c(n1)CN(Cc1nc(-c3ccco3)no1)CC2 | -8.2% |
| CN1CCOC(CN(C(=O)COc2ccccc2)c2nccs2)C1 (configuration not stated) | -4% |
| CC(C)c1ncc2c(n1)CN(Cc1nc(-c3ccccn3)no1)CC2 | -6.83% |
| Cc1nn(C)c(C)c1C1CCCN1Cc1nc(-c2cccs2)no1 (configuration not stated) | -2% |
| CC1CN(CC(=O)NCc2cccs2)CCN1c1nccs1 (configuration not stated) | -10.4% |
| Cc1nn(C)c(Cl)c1C1CCCN1Cc1nc(-c2ccco2)no1 (configuration not stated) | -6.17% |
| CCc1ncc2c(n1)CN(Cc1nc(-c3cccs3)no1)CC2 | -13% |
| c1ccc2oc(CN3CCCC3Cn3cncn3)nc2c1 (configuration not stated) | -6.61% |
| Cc1cnn(CC2CCCN2Cc2nnc(C(C)C)o2)c1 (configuration not stated) | 23% |
| Cn1ncc2c(N3CCN(C(=O)c4ccsc4)CC3)ncnc21 | -4.15% |
| COc1ccc(Cl)cc1C(=O)NCCNc1cnccn1 | -3.57% |
| Cn1ccc(C(=O)N2CCN(c3nccs3)CC2)cc1=O | 2.52% |
| COc1cc(CNCc2ccnc(N3CCOCC3)c2)cc(OC)c1 | 17.7% |
